Test results taken from patent US20170050894A1, “FERTILIZER MIXTURE CONTAINING NITRIFICATION INHIBITOR” (EUROCHEM AGRO GMBH, priority 2013, published 2017).

Experiment: Storage stability in an accelerated test (open glass beaker, 40 days at 30° C.)
Format: physicochemical
Details: for Analytical value (concentration of nitrification inhibitor on the mineral fertilizer): Value at start
Experimental: The concentration of nitrification inhibitor on the mineral fertilizer was determined before, during and after storage at two different depths in the bed, and the loss of nitrification inhibitor was ascertained. In each case about 10 to 30 g of treated mineral fertilizer were stored. The concentration of DMPP at the start was 1.028 g/kg fertilizer; for 2-(N-3,4-dimethylpyrazole)succinic acid, the figure was 1.244 g/kg fertilizer.
After 20 and 40 days, samples were taken from a surface region of the fertilizer bed (0 to 5 cm sampling depth and >5 cm sampling depth).
The results are shown in table 1 below, where DMPSA denotes 2-(N-3,4-dimethylpyrazole)succinic acid.

## Cc1c[nH]nc1C.O=P(O)(O)O [DMPP, 3,4-dimethylpyrazole phosphate, reference compound]
  Analytical value (concentration of nitrification inhibitor on the mineral fertilizer): 1.028 g/kg

## Cc1cn(C(CC(=O)O)C(=O)O)nc1C (stereo not drawn) [DMPSA, 2-(N-3,4-dimethylpyrazole)succinic acid]
  Analytical value (concentration of nitrification inhibitor on the mineral fertilizer): 1.244 g/kg
Storage over 20 to 40 days on CAN
  loss of nitrification inhibitor on storage, compared with DMPP: much lower
